Measured values as given in ChEMBL document CHEMBL1201862, “PubChem BioAssay data set” (2004).
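Protocol summary: plate cells (96-well), add compound at 5 concentrations, incubate 48 h, interpolate endpoints linearly. GI50 is the concentration that inhibits growth by half.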 Calls of active or inactive are those of the source. Cut-off read from the data, not from the text of the source: active = GI50 up to about 1.1 µM and inactive = higher.

How the values were obtained:
Assay in all cases: growth of human tumour cells (NCI), 48 h
MDA-MB-231 = system: MDA-MB-231
IGROV-1 = system: IGROV-1
SW-620 = system: SW-620
SK-OV-3 = system: SK-OV-3
TK-10 = system: TK-10
PC-3 = system: PC-3
UACC-257 = system: UACC-257
T47D = system: T47D
HL-60 = system: HL-60
SNB-75 = system: SNB-75
SK-MEL-5 = system: SK-MEL-5
A549 = system: A549
SK-MEL-2 = system: SK-MEL-2
COLO 205 = system: COLO 205
HOP-62 = system: HOP-62
MDA-MB-435 = system: MDA-MB-435
RPMI-8226 = system: RPMI-8226
NCI-H522 = system: NCI-H522
SF-268 = system: SF-268
MDA-N = system: MDA-N

Measured: GI50

C[C@@H](O)C(=O)N1[C@@H]2CC3CC[C@]2(CS1(=O)=O)C3(C)C
inactive: MDA-MB-231 > 100 µM | IGROV-1 > 100 µM | SW-620 28.1 µM | SK-OV-3 > 100 µM | TK-10 > 100 µM | PC-3 96.8 µM | UACC-257 > 100 µM | T47D > 100 µM | HL-60 28.9 µM | SNB-75 > 100 µM | SK-MEL-5 49.2 µM | A549 95.1 µM | SK-MEL-2 > 100 µM | COLO 205 79.3 µM | HOP-62 > 100 µM | MDA-MB-435 63.8 µM | RPMI-8226 39.7 µM

CCOC(=O)c1cc(C#N)[nH]c1-c1ccsc1
inactive: MDA-MB-231 41.6 µM | IGROV-1 40.4 µM | SW-620 31.3 µM | SK-OV-3 43.8 µM | TK-10 38.5 µM | NCI-H522 30.3 µM | SF-268 22.8 µM | MDA-N 33.9 µM | PC-3 25.5 µM | UACC-257 36.2 µM | HL-60 16.4 µM | SNB-75 22.5 µM | SK-MEL-5 34.9 µM | A549 31.7 µM | SK-MEL-2 46.7 µM | COLO 205 32.2 µM | HOP-62 59.8 µM | MDA-MB-435 23.1 µM | RPMI-8226 23.6 µM

O=C(O)CSC(NC(=O)C(C(F)(F)F)C(F)(F)F)(C(F)(F)F)C(F)(F)F
inactive: IGROV-1 > 100 µM | SW-620 > 100 µM | SK-OV-3 > 100 µM | TK-10 > 100 µM | SF-268 > 100 µM | MDA-N > 100 µM | PC-3 > 100 µM | UACC-257 > 100 µM | T47D > 100 µM | HL-60 > 100 µM | SNB-75 > 100 µM | SK-MEL-5 > 100 µM | A549 > 100 µM | SK-MEL-2 > 100 µM | COLO 205 > 100 µM | MDA-MB-435 > 100 µM | RPMI-8226 > 100 µM

CN(C)C1(N(C)C)Oc2c(c(=O)n(C)c(=O)n2C)C(c2ccccc2Br)C1(F)F (stereo unspecified)
inactive: MDA-MB-231 > 100 µM | SW-620 > 100 µM | SK-OV-3 > 100 µM | TK-10 > 100 µM | SF-268 > 100 µM | PC-3 > 100 µM | UACC-257 > 100 µM | T47D > 100 µM | SNB-75 > 100 µM | SK-MEL-5 > 100 µM | A549 > 100 µM | SK-MEL-2 > 100 µM | COLO 205 > 100 µM | HOP-62 > 100 µM | MDA-MB-435 > 100 µM | RPMI-8226 > 100 µM

CC(=O)/C=c1\[nH]/c(=C\C=C\c2ccccc2)c(=O)n1/C=C1\C(=O)Oc2ccccc2C1=O
inactive: MDA-MB-231 > 100 µM | IGROV-1 > 100 µM | SW-620 > 100 µM | SK-OV-3 > 100 µM | TK-10 > 100 µM | NCI-H522 > 100 µM | SF-268 > 100 µM | MDA-N > 100 µM | PC-3 > 100 µM | UACC-257 > 100 µM | HL-60 > 100 µM | SNB-75 59.4 µM | SK-MEL-5 > 100 µM | A549 > 100 µM | SK-MEL-2 > 100 µM | COLO 205 > 100 µM | MDA-MB-435 > 100 µM | RPMI-8226 > 100 µM

CC(C)(C)c1nc2c(o1)/C(=N\c1ccccc1)c1ccccc1C2=O
inactive: IGROV-1 6.87 µM | SW-620 4.47 µM | SK-OV-3 34.5 µM | TK-10 30.2 µM | NCI-H522 2.91 µM | SF-268 3.55 µM | UACC-257 1.72 µM | HL-60 2.87 µM | SNB-75 5.61 µM | SK-MEL-5 1.42 µM | A549 7.6 µM | SK-MEL-2 2.53 µM | COLO 205 32.3 µM | HOP-62 17.3 µM | RPMI-8226 3.94 µM

COc1cc2c(cc1OCCCC(=O)Nc1cc(C(=O)Nc3cc(C(=O)Nc4cc(C(=O)NCCCN(C)C)n(C)n4)n(C)n3)n(C)n1)N=CC1CCCN1C2=O (stereo unspecified)
inactive: MDA-MB-231 24.2 µM | IGROV-1 2.96 µM | SW-620 5.21 µM | SK-OV-3 45.2 µM | TK-10 20.7 µM | NCI-H522 1.69 µM | SF-268 31.2 µM | PC-3 31.3 µM | UACC-257 19 µM | T47D 56 µM | HL-60 6.14 µM | SNB-75 27.9 µM | SK-MEL-5 19.5 µM | A549 55.2 µM | SK-MEL-2 24.8 µM | COLO 205 3.53 µM | HOP-62 45.5 µM | MDA-MB-435 20.1 µM | RPMI-8226 5.74 µM

CC(C)(C)OC(=O)/C=C/C(=O)O/C=C/[N+](=O)[O-]
inactive: MDA-MB-231 > 100 µM | IGROV-1 > 100 µM | SW-620 > 100 µM | SK-OV-3 > 100 µM | TK-10 > 100 µM | NCI-H522 > 100 µM | SF-268 > 100 µM | MDA-N > 100 µM | UACC-257 > 100 µM | SNB-75 > 100 µM | SK-MEL-5 > 100 µM | A549 > 100 µM | COLO 205 > 100 µM | HOP-62 > 100 µM | MDA-MB-435 > 100 µM | RPMI-8226 > 100 µM

C[C@]12CCC(=O)C=C1CC[C@@H]1[C@@H]2CC[C@]2(C)C(=O)[C@H](n3ccnc3)C[C@@H]12
inactive: MDA-MB-231 > 100 µM | IGROV-1 > 100 µM | SW-620 > 100 µM | TK-10 > 100 µM | NCI-H522 > 100 µM | SF-268 > 100 µM | MDA-N > 100 µM | PC-3 > 100 µM | UACC-257 > 100 µM | HL-60 21.9 µM | SNB-75 > 100 µM | SK-MEL-5 63.1 µM | A549 > 100 µM | SK-MEL-2 > 100 µM | COLO 205 > 100 µM | MDA-MB-435 > 100 µM | RPMI-8226 > 100 µM

Cc1cc(C)nc(NC(P(=O)(O)O)P(=O)(O)O)n1
inactive: MDA-MB-231 > 100 µM | IGROV-1 > 100 µM | SK-OV-3 > 100 µM | TK-10 > 100 µM | NCI-H522 > 100 µM | SF-268 > 100 µM | MDA-N > 100 µM | PC-3 > 100 µM | UACC-257 > 100 µM | SK-MEL-5 > 100 µM | A549 > 100 µM | COLO 205 > 100 µM | HOP-62 > 100 µM

COc1ccc(OC)c(-c2cc(=O)c3c(OC)c(OC)c(OC)c(OC)c3o2)c1
inactive: MDA-MB-231 40.2 µM | IGROV-1 29.9 µM | SW-620 33 µM | SK-OV-3 22.8 µM | TK-10 37.9 µM | NCI-H522 20 µM | SF-268 36 µM | MDA-N 35.9 µM | UACC-257 36.2 µM | T47D 2.13 µM | HL-60 14.2 µM | SNB-75 46.8 µM | SK-MEL-5 12.4 µM | A549 28.5 µM | SK-MEL-2 20 µM | COLO 205 17.1 µM | HOP-62 27.6 µM | MDA-MB-435 28 µM | RPMI-8226 21.5 µM
